Test system: 596521-263-R-J1-PDC complex spheroids, viability % of control
Test: Anticancer human tumor 596521-263-R-J1-PDC patient-derived soft tissue sarcoma cell line growth inhibition [GQUAD]
Conditions: for IC50: curve of first compound; for viability, T/C: stronger effect = lower value
Excerpt: DNA G-quadruplex Stabilizer Agents in Combinations in Complex Spheroids
A high-throughput screen of multi-cell type tumor spheroids was designed to identify active combinations of DNA G-quadruplex stabilizer agents and targeted small molecules. Complex spheroids include a stromal component modeled by human endothelial cells (HUVEC) and fibroblasts modeled by human mesenchymal stem cells (MSCs). The concentration ranges selected for each drug and investigational agent were based upon clinically achievable concentrations if the clinical Cmax of the agent was known.
Compounds. The drugs and investigational agents: pidnarulex (CX-5461; NSC782164), APTO-253 (NSC789042), BRACO-19 (NSC847499), peposertib (NSC802822), ceralasertib (NSC780249), elimusertib (NSC800525), camonsertib (NSC841442), AZD-1390 (NSC803789), olaparib (NSC753686), talazoparib (NSC767125), ART-558 (NSC835418), sotorasib (NSC818433), MRTX-1133 (NSC836407), SN-38 (NSC673596), topotecan (NSC609699), etoposide (NSC141540), doxorubicin (NSC123127), gemcitabine (NSC613327), 5-fluorouracil (NSC19893), paclitaxel (NSC125973), vemurafenib (NSC761431), panobinostat (NSC761190), R-306465 (JNJ-16241199; NSC773264), adavosertib (NSC754352), TP-3654 (NSC805149), carboplatin (NSC241240), KSQ-4279 (NSC840948), and staurosporine (NSC755774) were obtained from the National Cancer Institute (NCI) Developmental Therapeutics Program Chemical Repository (34). The FDA-approved anticancer drug set is available from the NCI Developmental Therapeutics Program. […] The stock solutions were prepared in dimethyl sulfoxide (DMSO, Sigma-Aldrich, St. Louis, MO, cat. D2650) at 800-fold the tested concentration and stored at -70 degrees C prior to their use. All drugs and investigational agents were tested over a range starting from a high concentration at or near the clinical Cmax and decreasing in half-log increments. If the clinical Cmax for an agent had not been determined, the highest concentration tested was 10 microM.
2.3 Cell Culture. All cells were maintained in an incubator at 37 degrees C and 5% CO2 with 95% humidity. The PDC lines were cultured according to standard operating procedures established by the NCI PDMR. All PDCs were thawed and cultured in Matrigel-coated flasks prepared with a working solution of 1X Ham's F-12 nutrient mix, without supplementation (Invitrogen, cat. 11765054), 100 U/mL penicillin-streptomycin (Invitrogen, cat. 15140122), and 2.5% Matrigel (Corning Inc., cat. 354248) for the first three passages. The 857933-349-R-J2-PDC line was cultured in 6C/Colon 1B media, which includes advanced DMEM/F-12 (Thermo Fisher Scientific, cat. 12634028), 10 mM HEPES (Thermo Fisher Scientific, cat. 15630080), 1X GlutaMAX supplement (Thermo Fisher Scientific, cat. 35050061), 0.1 mg/mL primocin (InvivoGen, cat. ant-pm-2), 10% defined fetal bovine serum, heat inactivated (HyClone Laboratories Inc., cat. SH30070.03HI), 50% L-WRN conditioned media (ATCC, cat. CRL-3276), 1.25 mM N-Acetyl-L-cysteine (Sigma-Aldrich, cat. A9165), 10 mM nicotinamide (Sigma-Aldrich, cat. N0636), 1X B-27 supplement (Thermo Fisher Scientific, cat. 17504044), 1X N-2 supplement (Thermo Fisher Scientific, cat. 17502048), 10 microM Y-27632 dihydrochloride (Tocris Bioscience, cat. 1254), and 50 ng/mL human EGF recombinant protein (Thermo Fisher Scientific, cat. PHG0311). The 485176-168-R4-J1-PDC line was cultured in Panc media, which includes all 6C/Colon 1B media components plus 100 ng/mL human FGF-10 (Thermo Fisher Scientific, cat. 100-26), 500 nM SB-431542 (Selleckchem, cat. S1067), and gastrin (Tocris, cat. 3006).
[…]

[1] = second compound 0.0316 µM, first compound 0.0316 µM
[2] = second compound 0.0316 µM, first compound 0.1 µM
[3] = second compound 0.0316 µM, first compound 0.316 µM
[4] = second compound 0.0316 µM, first compound 1 µM
[5] = second compound 0.0316 µM, first compound 3.16 µM
[6] = second compound 0.0316 µM, first compound 10 µM
[7] = second compound 0.1 µM, first compound 0.0316 µM
[8] = second compound 0.1 µM, first compound 0.1 µM
[9] = second compound 0.1 µM, first compound 0.316 µM
[10] = second compound 0.1 µM, first compound 1 µM
[11] = second compound 0.1 µM, first compound 3.16 µM
[12] = second compound 0.1 µM, first compound 10 µM
[13] = second compound 0.316 µM, first compound 0.0316 µM
[14] = second compound 0.316 µM, first compound 0.1 µM
[15] = second compound 0.316 µM, first compound 0.316 µM
[16] = second compound 0.316 µM, first compound 1 µM
[17] = second compound 0.316 µM, first compound 3.16 µM
[18] = second compound 0.316 µM, first compound 10 µM
[19] = second compound 1 µM, first compound 0.0316 µM
[20] = second compound 1 µM, first compound 0.1 µM
[21] = second compound 1 µM, first compound 0.316 µM
[22] = second compound 1 µM, first compound 1 µM
[23] = second compound 1 µM, first compound 3.16 µM
[24] = second compound 1 µM, first compound 10 µM
[25] = second compound 3.16 µM, first compound 0.0316 µM
[26] = second compound 3.16 µM, first compound 0.1 µM
[27] = second compound 3.16 µM, first compound 0.316 µM
[28] = second compound 3.16 µM, first compound 1 µM
[29] = second compound 3.16 µM, first compound 3.16 µM
[30] = second compound 3.16 µM, first compound 10 µM
[31] = second compound 10 µM, first compound 0.0316 µM
[32] = second compound 10 µM, first compound 0.1 µM
[33] = second compound 10 µM, first compound 0.316 µM
[34] = second compound 10 µM, first compound 1 µM
[35] = second compound 10 µM, first compound 3.16 µM
[36] = second compound 10 µM, first compound 10 µM
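Also: spheroids exposed to drugs for 7 days before viability reading.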

COc1cc(C2c3cc4c(cc3C(OC3OC5COC(C)OC5C(O)C3O)C3COC(=O)C23)OCO4)cc(OC)c1O (centres undefined) + CN(C)c1ccc(Nc2c3ccc(NC(=O)CCN4CCCC4)cc3nc3cc(NC(=O)CCN4CCCC4)ccc23)cc1
IC50 (second compound 0.0316 µM): 3.59 µM
IC50 (second compound 0.1 µM): 8.19 µM
IC50 (second compound 0.316 µM): > 10 µM
IC50 (second compound 1 µM): 2.75 µM
IC50 (second compound 3.16 µM): 3.12 µM
IC50 (second compound 10 µM): 4.29 µM
viability, T/C [1]: 101%
viability, T/C [2]: 96.2%
viability, T/C [3]: 84.5%
viability, T/C [4]: 59.8%
viability, T/C [5]: 56.8%
viability, T/C [6]: 40.3%
viability, T/C [7]: 111%
viability, T/C [8]: 96.6%
viability, T/C [9]: 85%
viability, T/C [10]: 70.6%
viability, T/C [11]: 57.8%
viability, T/C [12]: 48.5%
viability, T/C [13]: 96.4%
viability, T/C [14]: 107%
viability, T/C [15]: 82.7%
viability, T/C [16]: 67.2%
viability, T/C [17]: 56.8%
viability, T/C [18]: 47.8%
viability, T/C [19]: 95.9%
viability, T/C [20]: 92.8%
viability, T/C [21]: 94.6%
viability, T/C [22]: 72.3%
viability, T/C [23]: 47%
viability, T/C [24]: 46.6%
viability, T/C [25]: 95.9%
viability, T/C [26]: 94.9%
viability, T/C [27]: 85%
viability, T/C [28]: 63.9%
viability, T/C [29]: 49.7%
viability, T/C [30]: 46.6%
viability, T/C [31]: 68%
viability, T/C [32]: 63.6%
viability, T/C [33]: 67.1%
viability, T/C [34]: 55.5%
viability, T/C [35]: 54%
viability, T/C [36]: 42.9%

O=C(c1cc(Cc2n[nH]c(=O)c3ccccc23)ccc1F)N1CCN(C(=O)C2CC2)CC1 + CN(C)c1ccc(Nc2c3ccc(NC(=O)CCN4CCCC4)cc3nc3cc(NC(=O)CCN4CCCC4)ccc23)cc1
IC50 (second compound 0.0316 µM): > 10 µM
IC50 (second compound 0.1 µM): > 10 µM
IC50 (second compound 0.316 µM): > 10 µM
IC50 (second compound 1 µM): > 10 µM
IC50 (second compound 3.16 µM): > 10 µM
IC50 (second compound 10 µM): > 10 µM
viability, T/C [1]: 112%
viability, T/C [2]: 106%
viability, T/C [3]: 101%
viability, T/C [4]: 104%
viability, T/C [5]: 86.2%
viability, T/C [6]: 68%
viability, T/C [7]: 108%
viability, T/C [8]: 89.3%
viability, T/C [9]: 97.4%
viability, T/C [10]: 99%
viability, T/C [11]: 88.3%
viability, T/C [12]: 67.9%
viability, T/C [13]: 114%
viability, T/C [14]: 103%
viability, T/C [15]: 101%
viability, T/C [16]: 103%
viability, T/C [17]: 88.5%
viability, T/C [18]: 74.3%
viability, T/C [19]: 108%
viability, T/C [20]: 98.2%
viability, T/C [21]: 109%
viability, T/C [22]: 99.2%
viability, T/C [23]: 94.6%
viability, T/C [24]: 69.2%
viability, T/C [25]: 110%
viability, T/C [26]: 89.6%
viability, T/C [27]: 90.8%
viability, T/C [28]: 89.9%
viability, T/C [29]: 91%
viability, T/C [30]: 70.8%
viability, T/C [31]: 70.4%
viability, T/C [32]: 62.2%
viability, T/C [33]: 76.7%
viability, T/C [34]: 72.4%
viability, T/C [35]: 66.5%
viability, T/C [36]: 59.9%

Source: PubChem BioAssay AID2060500 (Molecular Pharmacology Branch, DTP, NCI, 2025)
